In US10179123B2, “2-aryl- and 2-arylalkyl-benzimidazoles as mIDH1 inhibitors” (BAYER PHARMA AKTIENGESELLSCHAFT, priority 2015, dated 2019):
pIC50: −log10 of the molar value.

biological target: IDH1 R132H enzyme (Homo sapiens (Human), UniProt O75874, R132H); assay: Mutant IDH1 R132H biochemical assay; details: NADPH consumption, luminescent readout; 1.5 nM enzyme, 1 μM NADPH, 250 μM α-KG, 30 minutes, 32° C.
Experimental: NADPH consumption was measured by luminescent readout. […] The final DMSO concentration was 2.4%. […] Luminescence was measured on a luminescent reader (10 seconds measuring time, 1 second integration period, 30% sensitivity). The decrease in luminescence is proportional to mIDH1 activity. IC50 values are determined by interpolation from plots of relative luminescence versus inhibitor concentration.

Sequence of IDH1 R132H enzyme (O75874 whole entry R132H): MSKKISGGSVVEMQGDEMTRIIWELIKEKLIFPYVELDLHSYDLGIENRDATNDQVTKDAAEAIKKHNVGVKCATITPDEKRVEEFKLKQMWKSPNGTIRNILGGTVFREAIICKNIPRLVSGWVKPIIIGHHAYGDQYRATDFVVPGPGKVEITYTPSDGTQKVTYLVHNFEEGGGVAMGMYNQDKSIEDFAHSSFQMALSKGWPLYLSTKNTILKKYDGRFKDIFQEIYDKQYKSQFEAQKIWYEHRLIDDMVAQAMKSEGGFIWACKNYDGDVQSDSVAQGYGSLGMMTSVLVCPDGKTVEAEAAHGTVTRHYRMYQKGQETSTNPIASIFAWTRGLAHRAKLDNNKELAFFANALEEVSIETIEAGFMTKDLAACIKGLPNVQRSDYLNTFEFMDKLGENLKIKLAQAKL

Structure (SMILES) | pIC50
COC(=O)c1ccc2c(c1)nc(Cc1ccc(OC(F)(F)F)cc1)n2[C@H]1C[C@@H](C)CC(C)(C)C1 (racemic) [Example 2-3, (±) methyl 2-[4-(trifluoromethoxy)benzyl]-1-[(cis)-3,3,5-trimethylcyclohexyl]-1H-benzimidazole-5-carboxylate] | 6.17
COC(=O)c1ccc2c(c1)nc(Cc1ccc(OC(C)C)cc1)n2[C@H]1C[C@@H](C)CC(C)(C)C1 (racemic) [Example 2-6, (±) methyl 2-[4-(propan-2-yloxy)benzyl]-1-[(cis)-3,3,5-trimethylcyclohexyl]-1H-benzimidazole-5-carboxylate] | 5.82
COC(=O)c1ccc2c(c1)nc(Cc1ccc(F)cc1)n2[C@H]1C[C@@H](C)CC(C)(C)C1 (racemic) [Example 2-9, (±) methyl 2-(4-fluorobenzyl)-1-[(cis)-3,3,5-trimethylcyclohexyl]-1H-benzimidazole-5-carboxylate] | 5.38
COC(=O)c1ccc2c(c1)nc(Cc1cccc(OC(F)(F)F)c1)n2[C@H]1C[C@@H](C)CC(C)(C)C1 (racemic) [Example 2-14, (±) methyl 2-[3-(trifluoromethoxy)benzyl]-1-[(cis)-3,3,5-trimethylcyclohexyl]-1H-benzimidazole-5-carboxylate] | 5.00
COC(=O)c1cc2nc(Cc3ccc(OC(F)(F)F)cc3)n([C@H]3C[C@@H](C)CC(C)(C)C3)c2cc1OC(C)C (racemic) [Example 2-20, (±) methyl 6-(propan-2-yloxy)-2[4-(trifluoromethoxy)benzyl]-1-[(cis)-3,3,5-trimethylcyclohexyl]-1H-benzimidazole-5-carboxylate] | 5.55
CC(C)c1ccc(Cc2nc3cc(C#N)ccc3n2[C@H]2C[C@@H](C)CC(C)(C)C2)cc1 (racemic) [Example 2-25, (±) 2-[4-(propan-2-yl)benzyl]-1-[(cis)-3,3,5-trimethylcyclohexyl]-1H-benzimidazole-5-carbonitrile] | 6.46
COC(=O)c1ccc2c(c1)nc(C(C)c1ccc(OC(F)(F)F)cc1)n2[C@H]1C[C@@H](C)CC(C)(C)C1 (relative stereo) [Reference compound 2-4, methyl 2-{1-[4-(trifluoromethoxy)phenyl]ethyl}-1-[(cis)-3,3,5-trimethylcyclohexyl]-1H-benzimidazole-5-carboxylate, reference compound] | < 5.00
COC(=O)c1ccc2c(c1)nc(-c1ccc(OC(F)(F)F)cc1)n2[C@H]1C[C@@H](C)CC(C)(C)C1 (single isomer, unassigned) [Example 2-1-1, methyl 2-[4-(trifluoromethoxy)phenyl]-1-[(cis)-3,3,5-trimethylcyclohexyl]-1H-benzimidazole-5-carboxylate] | 6.00
COC(=O)c1ccc2c(c1)nc(Cc1ccc(OC(F)(F)F)cc1)n2[C@H]1C[C@@H](C)CC(C)(C)C1 (single isomer, unassigned) [Example 2-3-1, methyl 2-[4-(trifluoromethoxy)benzyl]-1-[(cis)-3,3,5-trimethylcyclohexyl]-1H-benzimidazole-5-carboxylate] | 5.77
COC(=O)c1ccc2c(c1)nc(Cc1ccc(OC(F)(F)F)cc1)n2[C@H]1C[C@@H](C)CC(C)(C)C1 (single isomer, unassigned) [Example 2-3-2, methyl 2-[4-(trifluoromethoxy)benzyl]-1-[(cis)-3,3,5-trimethylcyclohexyl]-1H-benzimidazole-5-carboxylate] | 6.21
COC(=O)c1ccc2c(c1)nc(C(C)c1ccc(OC(F)(F)F)cc1)n2[C@H]1C[C@@H](C)CC(C)(C)C1 (single isomer, unassigned) [Reference compound 2-4-1, methyl 2-{1-[4-(trifluoromethoxy)phenyl]ethyl}-1-[(cis)-3,3,5-trimethylcyclohexyl]-1H-benzimidazole-5-carboxylate, reference compound] | < 5.00
COC(=O)c1ccc2c(c1)nc(C(C)c1ccc(OC(F)(F)F)cc1)n2[C@H]1C[C@@H](C)CC(C)(C)C1 (single isomer, unassigned) [Reference compound 2-4-2, methyl 2-{1-[4-(trifluoromethoxy)phenyl]ethyl}-1-[(cis)-3,3,5-trimethylcyclohexyl]-1H-benzimidazole-5-carboxylate, reference compound] | < 5.00
COC(=O)c1ccc2c(c1)nc(C(C)c1ccc(OC(F)(F)F)cc1)n2[C@H]1C[C@@H](C)CC(C)(C)C1 (single isomer, unassigned) [Reference compound 2-4-3, methyl 2-{1-[4-(trifluoromethoxy)phenyl]ethyl}-1-[(cis)-3,3,5-trimethylcyclohexyl]-1H-benzimidazole-5-carboxylate, reference compound] | 5.30
C[C@H]1C[C@@H](n2c(C(C)(C)c3ccc(OC(F)(F)F)cc3)nc3cc(C(=O)O)ccc32)CC(C)(C)C1 (stereo in doubt) [Example 2-31] | 5.42
Cc1ccc(Cc2nc3cc(C(=O)O)ccc3n2[C@@H]2C[C@H](C)CC(C)(C)C2)cc1 (stereo in doubt) [Example 2-36] | 6.24
C[C@H]1C[C@@H](n2c(Cc3ccccc3)nc3cc(C(=O)O)ccc32)CC(C)(C)C1 (stereo in doubt) [Example 2-38] | 5.62

Now from value to compound:

pIC50 | Structure (SMILES)
5.00 | COC(=O)c1ccc2c(c1)nc(-c1ccc(OC(F)(F)F)cc1)n2[C@H]1C[C@@H](C)CC(C)(C)C1 (racemic) [Example 2-1, (±) methyl 2-[4-(trifluoromethoxy)phenyl]-1-[(cis)-3,3,5-trimethylcyclohexyl]-1H-benzimidazole-5-carboxylate]
5.82 | COC(=O)c1ccc2c(c1)nc(Cc1ccc(C(F)(F)F)cc1)n2[C@H]1C[C@@H](C)CC(C)(C)C1 (racemic) [Example 2-8, (±) methyl 2-[4-(trifluoromethyl)benzyl]-1-[(cis)-3,3,5-trimethylcyclohexyl]-1H-benzimidazole-5-carboxylate]
5.82 | COC(=O)c1ccc2c(c1)nc(Cc1ccc(C)cc1)n2[C@H]1C[C@@H](C)CC(C)(C)C1 (racemic) [Example 2-10, (±) methyl 2-(4-methylbenzyl)-1-[(cis)-3,3,5-trimethylcyclohexyl]-1H-benzimidazole-5-carboxylate]
5.85 | COC(=O)c1ccc2c(c1)nc(Cc1ccc(C(C)(C)C)cc1)n2[C@H]1C[C@@H](C)CC(C)(C)C1 (racemic) [Example 2-11, (±) methyl 2-(4-tert-butylbenzyl)-1-[(cis)-3,3,5-trimethylcyclohexyl]-1H-benzimidazole-5-carboxylate]
5.00 | COC(=O)c1ccc2c(c1)nc(Cc1ccccc1OC(F)(F)F)n2[C@@H]1C[C@H](C)CC(C)(C)C1 (racemic) [Example 2-13, (± methyl 2-[2-(trifluoromethoxy)benzyl]-1-[(cis)-3,3,5-trimethylcyclohexyl]-1H-benzimidazole-5-carboxylate]
5.82 | CC(C)Oc1ccc(Cc2nc3cc(C#N)ccc3n2[C@H]2C[C@@H](C)CC(C)(C)C2)cc1 (racemic) [Example 2-24, (±) 2-[4-(propan-2-yloxy)benzyl]-1-[(cis)-3,3,5-trimethylcyclohexyl]-1H-benzimidazole-5-carbonitrile]
6.15 | C[C@@H]1C[C@H](n2c(Cc3ccc(C(F)(F)F)cc3)nc3cc(C#N)ccc32)CC(C)(C)C1 (racemic) [Example 2-26, (±) 2-[4-(trifluoromethyl)benzyl]-1-[(cis)-3,3,5-trimethylcyclohexyl]-1H-benzimidazole-5-carbonitrile]
< 5.00 | COC(=O)c1ccc2c(c1)nc(C(C)(C)c1ccc(OC(F)(F)F)cc1)n2[C@H]1C[C@@H](C)CC(C)(C)C1 (racemic) [Reference compound 2-5, (±) methyl 2-{2-[4-(trifluoromethoxy)phenyl]propan-2-yl}-1-[(cis)-3,3,5-trimethylcyclohexyl]-1H-benzimidazole-5-carboxylate, reference compound]
5.24 | COC(=O)c1ccc2c(c1)nc(-c1ccc(OC(F)(F)F)cc1)n2[C@H]1C[C@@H](C)CC(C)(C)C1 (single isomer, unassigned) [Example 2-1-2, methyl 2-[4-(trifluoromethoxy)phenyl]-1-[(cis)-3,3,5-trimethylcyclohexyl]-1H-benzimidazole-5-carboxylate]
5.92 | COC(=O)c1cc2nc(Cc3ccc(OC(F)(F)F)cc3)n([C@H]3C[C@@H](C)CC(C)(C)C3)c2cc1C (single isomer, unassigned) [Example 2-18-2, methyl 6-methyl-2[4-(trifluoromethoxy)benzyl]-1-[(cis)-3,3,5-trimethylcyclohexyl]-1H-benzimidazole-5-carboxylate]
5.89 | COC(=O)c1cc2nc(Cc3ccc(OC(F)(F)F)cc3)n([C@H]3C[C@@H](C)CC(C)(C)C3)c2cc1OC(C)C (single isomer, unassigned) [Example 2-20-1, methyl 6-(propan-2-yloxy)-2-[4-(trifluoromethoxy)benzyl]-1-[(cis)-3,3,5-trimethylcyclohexyl]-1H-benzimidazole-5-carboxylate]
5.48 | COC(=O)c1cc2nc(Cc3ccc(OC(F)(F)F)cc3)n([C@H]3C[C@@H](C)CC(C)(C)C3)c2cc1OC(C)C (single isomer, unassigned) [Example 2-20-2, methyl 6-(propan-2-yloxy)-2-[4-(trifluoromethoxy)benzyl]-1-[(cis)-3,3,5-trimethylcyclohexyl]-1H-benzimidazole-5-carboxylate]
6.35 | CC(C)Oc1ccc(Cc2nc3cc(C(=O)O)ccc3n2[C@@H]2C[C@H](C)CC(C)(C)C2)cc1 (stereo in doubt) [Example 2-32-1]
5.89 | C[C@H]1C[C@@H](n2c(Cc3ccc(F)cc3)nc3cc(C(=O)O)ccc32)CC(C)(C)C1 (stereo in doubt) [Example 2-35]
5.30 | C[C@H]1C[C@@H](n2c(Cc3ccccc3OC(F)(F)F)nc3cc(C(=O)O)ccc32)CC(C)(C)C1 (stereo in doubt) [Example 2-39]
